One block for each compound: values may come before it.
Experiments:
[1] = system: H661 cells; assay: Cell-proliferation assay (CellTiter-Glo 2.0) in H661 cells; assay type: cell-based, human; settings: FIG. 3B
Procedure: (§1) Inventive bifunctional compounds 1 and 2 were tested in the A427 (anon-small cell lung cancer (NSCLC) cell line) and H661(human lung large cell carcinoma) cells. CellTiter-Glo® 2.0 Cell Viability Assay (Promega™) was used to measure cell growth (proliferation) inhibition and to report the ATP level reduction in cells after treatment with the bifunctional compounds.

[2] = system: A427 cells; assay: Cell-proliferation assay (CellTiter-Glo 2.0) in A427 cells; assay type: cell-based; settings: FIG. 3A
Procedure: as §1

[3] = biological target: PRMT5/MEP50 (Homo sapiens, UniProt O14744); assay: PRMT5 activity inhibition, AlphaLISA assay; assay type: biochemical; settings: PRMT5/MEP50 with biotinylated histone tail, FIG. 2A
Procedure: PMRT5 inhibition in HEK 293 WT cells was determined by AlphaLISA® assay (PerkinElmer®) according to manufacturer's instructions. The biotinylated Histone 4 […] histone tail was incubated with PRMT5/MEP50 and inventive bifunctional compounds 1-9, cereblon-based bifunctional compound PRMT5-58, PRMT5 inhibitors EPZ15666 and LLY-283 and RPN13 inhibitor RA190. Then the H4R3symetric Me2 antibody coated beads together with streptavidin beads were incubated together. Assays were processed by EnVision® multimode plate reader (PerkinElmer®).

[4] = system: HL60 cells; assay: Immunoblot analysis of HL60 cells, blotted targets; assay type: cell-based; settings: FIG. 4A
Procedure: FIG. 4A is an image showing an immunoblot analysis of HL60 cells treated with different concentrations (μM) of inventive bifunctional compound 13 for 24 hours and 48 hours.
(§2) Protein lysates were subjected to immunoblot analysis using anti-Rpn13, anti-betaActin, anti-H4R3Me2s, anti-H3, anti-RPN1 and anti-RPN10.

[5] = biological target: T1, RPN13 (Homo sapiens, UniProt Q16186); assay: Immunoblot analysis of HL60 cells, RPN13 degradation; assay type: cell-based; settings: 24 hours, FIG. 4B
T1 construct: endogenous in cells; host or cells: HL60
Procedure: (§3) FIG. 4B is an image showing an immunoblot analysis of HL60 cells treated with different concentrations (μM) of inventive bifunctional compound 14 for 24 hours.
as §2

[6] = biological target: T2, PRMT5 (Homo sapiens, UniProt O14744); assay: Immunoblot analysis of HL60 cells, PRMT5 degradation; assay type: cell-based; settings: 24 hours, FIG. 4B
T2 construct: endogenous in cells; host or cells: HL60
Procedure: as §3, §2

T1 sequence (Q16186 whole entry): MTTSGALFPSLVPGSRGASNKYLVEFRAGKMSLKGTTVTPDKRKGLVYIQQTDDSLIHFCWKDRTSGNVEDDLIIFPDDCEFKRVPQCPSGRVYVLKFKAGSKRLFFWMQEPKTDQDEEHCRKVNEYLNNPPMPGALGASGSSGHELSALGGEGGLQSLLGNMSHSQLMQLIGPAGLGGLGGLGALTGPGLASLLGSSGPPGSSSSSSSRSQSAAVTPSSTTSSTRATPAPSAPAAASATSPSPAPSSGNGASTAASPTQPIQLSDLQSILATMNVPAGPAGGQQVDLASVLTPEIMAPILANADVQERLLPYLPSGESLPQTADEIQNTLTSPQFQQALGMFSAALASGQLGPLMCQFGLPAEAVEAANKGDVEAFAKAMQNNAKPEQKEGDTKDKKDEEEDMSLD
T2 sequence (O14744 whole entry): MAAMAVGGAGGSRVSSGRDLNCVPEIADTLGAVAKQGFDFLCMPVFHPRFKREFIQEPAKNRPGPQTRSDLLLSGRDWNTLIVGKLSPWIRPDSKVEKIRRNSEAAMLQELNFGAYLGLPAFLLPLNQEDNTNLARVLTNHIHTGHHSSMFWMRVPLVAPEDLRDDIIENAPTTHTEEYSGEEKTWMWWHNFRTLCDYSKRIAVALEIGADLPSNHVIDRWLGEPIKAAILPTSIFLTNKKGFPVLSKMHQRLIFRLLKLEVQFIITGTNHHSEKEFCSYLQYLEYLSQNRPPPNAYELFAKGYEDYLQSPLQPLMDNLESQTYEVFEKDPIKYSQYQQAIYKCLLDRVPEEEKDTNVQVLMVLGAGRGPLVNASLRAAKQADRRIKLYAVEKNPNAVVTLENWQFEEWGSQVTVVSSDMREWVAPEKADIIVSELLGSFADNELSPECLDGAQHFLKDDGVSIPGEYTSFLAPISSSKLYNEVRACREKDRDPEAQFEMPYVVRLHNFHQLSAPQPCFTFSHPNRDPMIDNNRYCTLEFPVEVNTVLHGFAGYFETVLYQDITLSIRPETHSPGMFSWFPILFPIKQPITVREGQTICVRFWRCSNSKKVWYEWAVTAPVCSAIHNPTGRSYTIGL
T2 sequence (Q9BQA1 whole entry partner): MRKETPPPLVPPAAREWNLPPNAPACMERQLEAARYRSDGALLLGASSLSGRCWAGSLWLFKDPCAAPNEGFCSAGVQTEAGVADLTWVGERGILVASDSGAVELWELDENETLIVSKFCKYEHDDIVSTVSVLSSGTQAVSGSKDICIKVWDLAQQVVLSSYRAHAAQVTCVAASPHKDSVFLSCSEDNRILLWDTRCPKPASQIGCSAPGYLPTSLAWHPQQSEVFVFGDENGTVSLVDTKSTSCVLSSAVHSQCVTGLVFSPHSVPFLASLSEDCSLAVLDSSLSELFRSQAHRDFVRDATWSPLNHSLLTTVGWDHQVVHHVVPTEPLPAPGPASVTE
PRMT5/MEP50, sequence (O14744 whole entry): as the sequence (O14744 whole entry) above
PRMT5/MEP50, sequence (Q9BQA1 whole entry partner): as the sequence (Q9BQA1 whole entry partner) above

PRMT5 activity inhibition [3]: successfully inhibited PRMT5 function
SMILES: O=C(CCCC(=O)N[C@@H](Cc1ccccc1)C(=O)N1C/C(=C\c2ccc(Cl)c(Cl)c2)C(=O)/C(=C/c2ccc(Cl)c(Cl)c2)C1)NCCCC(=O)N1CC(Nc2cc(C(=O)NC[C@H](O)CN3CCc4ccccc4C3)ncn2)C1 [Compound 1, N1-((S)-1-(3,5-bis((E)-3,4-dichlorobenzylidene)-4-oxopiperidin-1-yl)-1-oxo-3-phenylpropan-2-yl)-N5-(4-(3-((6-(((S)-3-(3,4-dihydroisoquinolin-2(1H)-yl)-2-hydroxypropyl)carbamoyl)pyrimidin-4-yl)amino)azetidin-1-yl)-4-oxobutyl)glutaramide]
inhibition of cell growth (proliferation) [1]: effectively inhibited growth
inhibition of cell growth (proliferation) [2]: effectively inhibited growth

SMILES: O=C(CNc1cc(C(=O)NC[C@H](O)CN2CCc3ccccc3C2)ncn1)NCCCCCCC(=O)N[C@@H](Cc1ccccc1)C(=O)N1C/C(=C\c2ccc([N+](=O)[O-])cc2)C(=O)/C(=C/c2ccc([N+](=O)[O-])cc2)C1 [Compound 13, 6-((2-((7-(((S)-1-(3,5-bis((E)-4-nitrobenzylidene)-4-oxopiperidin-1-yl)-1-oxo-3-phenylpropan-2-yl)amino)-7-oxoheptyl)amino)-2-oxoethyl)amino)-N-((S)-3-(3,4-dihydroisoquinolin-2(1H)-yl)-2-hydroxypropyl)pyrimidine-4-carboxamide]
degradation of blotted targets ([4]; 24 and 48 hours): minimum degradation
concentration tolerated in the cell [4]: up to 10 μM

concentration resulting in degradation of RPN13 [5]: 1 µM
concentration with complete loss of RPN13 [5]: 3 µM
concentration resulting in degradation of PRMT5 [6]: 1 µM
concentration with complete loss of PRMT5 [6]: 3 µM
SMILES: O=C(CCCC(=O)N1CCC(Nc2cc(C(=O)NC[C@@H](O)CN3CCc4ccccc4C3)ncn2)CC1)N[C@@H](Cc1ccccc1)C(=O)N1C/C(=C\c2ccc(Cl)c(Cl)c2)C(=O)/C(=C/c2ccc(Cl)c(Cl)c2)C1 [Compound 14, 6-((1-(5-(((S)-1-(3,5-bis((E)-3,4-dichlorobenzylidene)-4-oxopiperidin-1-yl)-1-oxo-3-phenylpropan-2-yl)amino)-5-oxopentanoyl)piperidin-4-yl)amino)-N-((R)-3-(3,4-dihydroisoquinolin-2(1H)-yl)-2-hydroxypropyl)pyrimidine-4-carboxamide]
